Test results published in EP1960783B1, “REDUCTION OF NON-SPECIFIC BINDING IN ASSAYS” (Siemens Healthcare Diagnostics Inc., priority 2005, dated 2007).

Experiment: Blocking of non-specific binding by candidate blocker additives in the LOCI assay for CTNI (troponin) on the VISTA analyzer
Settings: for % supression*: NSB 1 sample vs PBS control
Text: Samples from a local blood bank were screened to determine if they produced a response with the troponin assay. Any donor sample that produced a positive result with the troponin test was assumed to be a false positive. This was confirmed by testing all samples that gave positive responses with at least one commercially available reference method. For the results reported here, the test results were confirmed using the Dade Behring DIMENSION Rxl® troponin (CTNI) test. The false positive samples were further screened for known causes of false positivity. The primary root cause of false positive results is human antibodies that bind mouse antibodies, an interference known as "HAMA" (Human Anti-Mouse Antibodies). The screening process used to determine if samples have HAMA interference consists of adding known HAMA binders (also known as blocking agents) that are available commercially from Roche and Scantibodies. If a sample that gives a positive response becomes normal when HAMA binders are added to the sample, the sample is assumed to be a false positive due to HAMA. Some samples were not corrected by the addition of HAMA binders. These were used in the testing described in the following examples.
An assay for CTNI, described in "Quantitation of Cardiac Markers by LOCI™ Technology", R. Bauer, et al., (Clinical Chemistry 2004; 50(6 supplement): A5) was used for evaluation of the candidate blocker compounds. The reagents for doing this assay consist of an antibody coated acceptor latex (acceptor bead) that emits light when contacted by singlet oxygen, a biotinylated antibody, and a streptavidin coated donor latex that produces singlet oxygen when illuminated by light of wavelengths that are absorbed by a photosensitizer dye dissolved in the latex particles. The streptavidin of the donor latex was bound to the latex particles through a spacer of dextran with aldehyde linking groups. In the case of the acceptor beads, the antibody was connected to the particles through a linking group or spacer that results from a combination of aminodextran and dextranaldehyde. For both latex reagents, the excess aldehyde groups remaining after linkage of the proteins are reacted with carboxymethoxyamine to quench the aldehydes.
These reagents are packaged in FLEX® containers that serve as reservoirs for the VISTA™ automated clinical analyzer that is described in "Development and Initial Performance of a New High-Volume Multi-Detector Analyzer: The DIMENSION VISTA™ Integrated System", T. Evers, et al. (Clinical Chemistry 2004; 50(6 supplement)) A31. The test kits and the analyzer are available from Dade Behring Inc., Newark, DE, USA. Candidate blocking reagents (soluble protein-polysaccharide conjugates (preformed or formed in situ) that reduce or eliminate interference from sample components) were tested by adding them (or a precursor such as, e.g., dextran aldehyde) to the biotinylated antibody reagent in prototype FLEX® containers or in some cases directly to the sample. FLEX® containers are from Dade Behring Inc.
Each test result shown in the tables below is the average of four test results. In general, the precision of the measurements was <2% CV for calibrators and for measurements of discrepant samples in those cases where effective blockers were used. The testing was done on different days with different instruments, so many control tests were needed to enable comparison of different sets of data.
Dextranaldehyde reacts with proteins to form Schiff's bases between the aldehyde functionality and the lysine amino groups of proteins thereby producing a conjugate. This reaction was accomplished by adding 5 mg/mL 500 kDa dextranaldehyde to the biotinylated antibody reagent of the CTNI FLEX® container, which contains 50 mg/mL of BSA in a pH 7.2 HEPES buffer with 1mg/mL 100-200 KDa dextran. […]

[1] = Table 4, additive 1 mg/mL added to sample
[2] = Table 4, additive 1 mg/mL added to calibrators and sample, held half an hour before testing
[3] = Table 5 Run 1, additive 5 mg/mL in biotinylated antibody reagent
[4] = Table 5 Run 2, additive 5 mg/mL in biotinylated antibody reagent

With “100-200-Dexal-BSA-10: dextranaldehyde from 100-200 kDa dextran conjugated with BSA, 100 parts dextranaldehyde to 10 parts BSA” the “% supression*” value [1] was 98.2%, the “Test Result Counts Cal 0” value [2] was 8,389 Counts and the “Test Result Counts Cal 8” value [2] was 954,766 Counts. The “Test Result Counts NSB 1” value [2] was 26,160 Counts.
With “100-200-Dexal-BSA-30: dextranaldehyde prepared from 100-200 kDa dextran conjugated with BSA at 100 parts dextranaldehyde to 30 parts BSA” the “% supression*” value [1] was 99.7%, the “Test Result Counts Cal 0” value [2] was 8,460 Counts and the “Test Result Counts Cal 8” value [2] was 969,563 Counts. For the same substance, the “Test Result Counts NSB 1” value [2] was 11,242 Counts.
In the case of “100-200-Dexal-BSA-50, first lot: 100-200 kDa dextranaldehyde conjugated with BSA, 100 parts to 50 parts”, the “% supression*” value [3] was 99.95%, the “Test Result Counts Cal 0” value [3] was 6,578 Counts and the “Test Result Counts Cal 8” value [3] was 743,213 Counts. The “Test Result Counts NSB 1” value [3] was 7,005 Counts.
For “100-200-Dexal-BSA-50, second lot: 100-200 kDa dextranaldehyde conjugated with BSA, 100 parts to 50 parts”, the “% supression*” value [3] was 100.00%, the “Test Result Counts Cal 0” value [3] was 7,136 Counts and the “Test Result Counts Cal 8” value [3] was 807,327 Counts. The “Test Result Counts NSB 1” value [3] was 7,134 Counts.
With “100-200-Dexal-BSA-100: 100-200 kDa dextranaldehyde conjugated with BSA, 100 parts to 100 parts” the “% supression*” value [3] was 99.97%, the “Test Result Counts Cal 0” value [3] was 7,320 Counts and the “Test Result Counts Cal 8” value [3] was 823,386 Counts. For the same substance, the “Test Result Counts NSB 1” value [3] was 7,544 Counts.
In the case of “100-200-Dexal-ovalbumin-100: 100-200 kDa dextranaldehyde conjugated with ovalbumin, 100 parts to 100 parts”, the “% supression*” value [4] was 95.93%, the “Test Result Counts Cal 0” value [4] was 6,370 Counts and the “Test Result Counts Cal 8” value [4] was 734,218 Counts. For the same substance, the “Test Result Counts NSB 1” value [4] was 39,569 Counts.
With “100-200-Dexat-ovalbumin-50: 100-200 kDa dextranaldehyde conjugated with ovalbumin, 100 parts to 50 parts” the “% supression*” value [4] was 99.26%, the “Test Result Counts Cal 0” value [4] was 6,573 Counts and the “Test Result Counts Cal 8” value [4] was 749,661 Counts. The “Test Result Counts NSB 1” value [4] was 12,630 Counts.
In the case of “BSA conjugate formed in situ: conjugate formed by adding 5 mg/mL 500 kDa dextranaldehyde to reagent containing 50 mg/mL BSA”, the “blocking the nonspecific binding” value (summary in words of Table 2, discrepant samples NSB 1-29) was “nearly bringing the falsely elevated results to the same level as the zero calibrator” and the blocking the interference (summary in words of Table 7, compared with the carboxymethyloxime derivative of dexal) was “significantly more effective”.
